In PubChem BioAssay (NCI):
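Following 48 hours of exposure in 96-well plates, responses at five concentrations were used to interpolate endpoints linearly. TGI denotes the concentration required for complete inhibition of growth.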

Key:
Experiment in all cases: NCI tumour cell line growth inhibition, 48 h
[1] = tested on: ACHN renal
[2] = tested on: OVCAR-5 ovarian
[3] = tested on: RPMI-8226 leukemia
[4] = tested on: DU-145 prostate
[5] = tested on: A549 NSCLC
[6] = tested on: MDA-N
[7] = tested on: HS 578T breast
[8] = tested on: HCT-116 colon
[9] = tested on: NCI-H226 lung
[10] = tested on: NCI-H23 lung
[11] = tested on: BT-549 breast
[12] = tested on: OVCAR-4 ovarian
[13] = tested on: HCC-2998 colon
[14] = tested on: SK-MEL-28 melanoma
[15] = tested on: MALME-3M melanoma
[16] = tested on: UO-31 renal
[17] = tested on: HT29 colon
[18] = tested on: OVCAR-8 ovarian
[19] = tested on: U251 CNS
[20] = tested on: UACC-62 melanoma
[21] = tested on: HCT-15 colon
[22] = tested on: EKVX NSCLC
[23] = tested on: COLO 205 colon
[24] = tested on: NCI-H460 lung
[25] = tested on: A498 renal
[26] = tested on: HOP-92 NSCLC
[27] = tested on: K-562 leukemia
[28] = tested on: SK-MEL-2 melanoma
[29] = tested on: SF-539 CNS
[30] = tested on: MDA-MB-435
[31] = tested on: SF-268 CNS
[32] = tested on: LOX IMVI melanoma
[33] = tested on: HL-60(TB) leukemia
[34] = tested on: NCI/ADR-RES ovarian
[35] = tested on: SW-620 colon
[36] = tested on: SF-295 CNS
[37] = tested on: RXF 393 renal
[38] = tested on: NCI-H522 lung
[39] = tested on: KM12 colon
[40] = tested on: SK-MEL-5 melanoma
[41] = tested on: TK-10 renal
[42] = tested on: MOLT-4 leukemia
[43] = tested on: SNB-19 CNS
[44] = tested on: CAKI-1 renal
[45] = tested on: SR leukemia
[46] = tested on: UACC-257 melanoma
[47] = tested on: SK-OV-3 ovarian
[48] = tested on: MCF7 breast
[49] = tested on: SNB-75 CNS
[50] = tested on: CCRF-CEM leukemia
[51] = tested on: T-47D breast
[52] = tested on: SN12C renal
[53] = tested on: HOP-62 NSCLC
[54] = tested on: PC-3 prostate
[55] = tested on: IGROV1 ovarian
[56] = tested on: OVCAR-3 ovarian
[57] = tested on: M14 melanoma
[58] = tested on: 786-0 renal
[59] = tested on: MDA-MB-231 breast

In the case of CCOC(=O)C(C(=O)OCC)=C1NC2(c3ccccc3Nc3ccc(C)cc32)C(C#N)S1 (configuration not stated), the TGI [1] was 16.3 µM, the TGI [2] was 27.7 µM and the TGI [3] was 4.63 µM. It also gave a TGI [4] of 43.8 µM, a TGI [5] of 21.8 µM and a TGI [6] of 46.3 µM. It also gave a TGI [7] of 46.5 µM, a TGI [8] of 22 µM and a TGI [9] of 25.3 µM. The TGI [10] was 12.3 µM, the TGI [11] was 29.5 µM and the TGI [12] was 40.7 µM. For the same compound, the TGI [13] was 11.3 µM, the TGI [14] was 70.9 µM and the TGI [15] was 30.7 µM. It also gave a TGI [16] of 17.8 µM, a TGI [17] of 15.1 µM and a TGI [18] of 35 µM. It also gave a TGI [19] of 17.9 µM, a TGI [20] of 26.8 µM and a TGI [21] of 29.5 µM. The TGI [22] was 39.5 µM, the TGI [23] was 14.6 µM and the TGI [24] was 12.7 µM. It also gave a TGI [25] of 29.4 µM, a TGI [26] of 14.2 µM and a TGI [27] of 25.8 µM. The TGI [28] was 22.1 µM, the TGI [29] was 12 µM and the TGI [30] was 23.5 µM. For the same compound, the TGI [31] was 36.2 µM, the TGI [32] was 24.4 µM and the TGI [33] was 61.2 µM. The TGI [34] was 25.7 µM, the TGI [35] was 30.3 µM and the TGI [36] was 58.7 µM. The TGI [37] was 27.8 µM, the TGI [38] was 30 µM and the TGI [39] was 41.3 µM. It also gave a TGI [40] of 20 µM, a TGI [41] of 31.1 µM and a TGI [42] of 5.76 µM. The TGI [43] was 30.8 µM, the TGI [44] was 72 µM and the TGI [45] was 4.99 µM. It also gave a TGI [46] of 45.6 µM, a TGI [47] of 98.9 µM and a TGI [48] of 11.9 µM. The TGI [49] was 64.3 µM, the TGI [50] was over 100 µM and the TGI [51] was 34.6 µM. It also gave a TGI [52] of 8.68 µM, a TGI [53] of 33.7 µM and a TGI [54] of 13.7 µM. It also gave a TGI [55] of 27.2 µM, a TGI [56] of 8.44 µM and a TGI [57] of 17.6 µM. The TGI [58] was 30.1 µM.

Work on COc1cc(OCc2nc3ccccc3n3cccc23)cc(OC)c1OC yielded a TGI [1] of over 100 µM, a TGI [2] of over 100 µM and a TGI [3] of 14.6 µM. It also gave a TGI [4] of over 100 µM, a TGI [5] of over 100 µM and a TGI [6] of over 100 µM. It also gave a TGI [7] of over 100 µM, a TGI [8] of over 60.5 µM and a TGI [9] of 52.4 µM. For the same compound, the TGI [10] was over 100 µM, the TGI [11] was over 100 µM and the TGI [12] was over 63 µM. For the same compound, the TGI [13] was over 88.3 µM, the TGI [14] was over 90.5 µM and the TGI [15] was over 74.4 µM. The TGI [16] was over 89.6 µM, the TGI [17] was over 100 µM and the TGI [18] was over 100 µM. For the same compound, the TGI [19] was over 100 µM, the TGI [20] was over 72.3 µM and the TGI [21] was over 100 µM. The TGI [22] was over 62.7 µM, the TGI [23] was over 82.3 µM and the TGI [24] was over 100 µM. It also gave a TGI [25] of over 100 µM, a TGI [26] of over 100 µM and a TGI [27] of 23.8 µM. For the same compound, the TGI [28] was over 100 µM, the TGI [29] was over 100 µM and the TGI [30] was over 52.4 µM. For the same compound, the TGI [31] was over 100 µM, the TGI [32] was over 100 µM and the TGI [33] was 48.2 µM. It also gave a TGI [34] of over 80.4 µM, a TGI [35] of over 54.5 µM and a TGI [36] of over 100 µM. It also gave a TGI [37] of over 100 µM, a TGI [38] of over 65.9 µM and a TGI [39] of over 50.6 µM. The TGI [40] was 9.35 µM, the TGI [41] was over 88.6 µM and the TGI [42] was 14.3 µM. It also gave a TGI [43] of over 100 µM, a TGI [44] of over 100 µM and a TGI [46] of over 60.9 µM. It also gave a TGI [47] of over 100 µM, a TGI [48] of 37.6 µM and a TGI [49] of over 100 µM. The TGI [50] was 25.4 µM, the TGI [51] was over 100 µM and the TGI [52] was over 88.9 µM. It also gave a TGI [53] of over 100 µM, a TGI [54] of over 100 µM and a TGI [55] of over 100 µM. It also gave a TGI [56] of over 60.9 µM, a TGI [57] of over 78.3 µM and a TGI [59] of over 100 µM. It also gave a TGI [58] of over 74.3 µM.

With O=c1c(C=Nc2ccccc2Cl)c(O)n(-c2ccccc2)c(=O)n1-c1ccccc1 the TGI [1] was over 100 µM, the TGI [2] was over 100 µM and the TGI [3] was over 100 µM. It also gave a TGI [5] of over 100 µM, a TGI [6] of over 100 µM and a TGI [7] of over 100 µM. It also gave a TGI [8] of over 100 µM, a TGI [9] of over 100 µM and a TGI [10] of over 100 µM. For the same compound, the TGI [11] was over 100 µM, the TGI [12] was over 100 µM and the TGI [13] was over 100 µM. The TGI [15] was over 100 µM, the TGI [16] was over 100 µM and the TGI [17] was over 100 µM. The TGI [18] was over 100 µM, the TGI [19] was over 100 µM and the TGI [20] was over 100 µM. For the same compound, the TGI [21] was over 100 µM, the TGI [22] was over 100 µM and the TGI [23] was over 100 µM. It also gave a TGI [24] of over 100 µM, a TGI [25] of over 100 µM and a TGI [26] of over 100 µM. The TGI [27] was over 100 µM, the TGI [28] was over 100 µM and the TGI [29] was over 100 µM. It also gave a TGI [30] of over 100 µM, a TGI [31] of over 100 µM and a TGI [32] of over 100 µM. It also gave a TGI [34] of over 100 µM, a TGI [35] of over 100 µM and a TGI [36] of over 100 µM. For the same compound, the TGI [37] was over 100 µM, the TGI [38] was over 100 µM and the TGI [39] was over 100 µM. The TGI [40] was over 100 µM, the TGI [41] was over 100 µM and the TGI [42] was over 100 µM. It also gave a TGI [43] of over 100 µM, a TGI [44] of over 100 µM and a TGI [46] of over 100 µM. For the same compound, the TGI [47] was over 100 µM, the TGI [48] was over 100 µM and the TGI [50] was over 100 µM. For the same compound, the TGI [51] was over 100 µM, the TGI [52] was over 100 µM and the TGI [53] was over 100 µM. It also gave a TGI [54] of over 100 µM, a TGI [55] of over 100 µM and a TGI [56] of over 100 µM. It also gave a TGI [57] of over 100 µM, a TGI [59] of over 100 µM and a TGI [58] of over 100 µM.

CN(C)C=C1C(=O)c2c(Br)sc(Br)c2C1=O showed a TGI [1] of 93.7 µM, a TGI [2] of 76.2 µM and a TGI [3] of over 100 µM. The TGI [4] was over 100 µM, the TGI [5] was over 100 µM and the TGI [6] was 42.1 µM. It also gave a TGI [7] of 46.9 µM, a TGI [8] of 53.9 µM and a TGI [9] of 33.3 µM. For the same compound, the TGI [10] was 37.8 µM, the TGI [11] was 48.4 µM and the TGI [12] was 31.7 µM. For the same compound, the TGI [13] was 25.9 µM, the TGI [14] was 31.3 µM and the TGI [15] was 29.3 µM. It also gave a TGI [16] of 47.5 µM, a TGI [17] of 86.5 µM and a TGI [18] of 72.3 µM. It also gave a TGI [19] of 39.6 µM, a TGI [20] of 37.1 µM and a TGI [21] of 54.7 µM. The TGI [22] was 40.5 µM, the TGI [23] was 37.7 µM and the TGI [24] was 48.7 µM. It also gave a TGI [25] of 47.8 µM, a TGI [26] of 37.1 µM and a TGI [27] of 66.4 µM. The TGI [28] was 31.3 µM, the TGI [29] was 35.7 µM and the TGI [30] was 29.5 µM. The TGI [31] was 32.5 µM, the TGI [32] was 38.9 µM and the TGI [33] was 53.7 µM. It also gave a TGI [34] of 73.2 µM, a TGI [35] of over 100 µM and a TGI [36] of 49.7 µM. It also gave a TGI [37] of 42.4 µM, a TGI [38] of 31.5 µM and a TGI [39] of over 100 µM. For the same compound, the TGI [40] was 30.6 µM, the TGI [41] was 99.7 µM and the TGI [42] was over 100 µM. It also gave a TGI [43] of 80.4 µM, a TGI [44] of 36 µM and a TGI [46] of 33 µM. The TGI [47] was 62.7 µM, the TGI [48] was over 100 µM and the TGI [49] was 43.5 µM. For the same compound, the TGI [50] was over 100 µM, the TGI [51] was over 100 µM and the TGI [52] was over 100 µM. It also gave a TGI [53] of 91.4 µM, a TGI [54] of 49.9 µM and a TGI [55] of 46.8 µM. The TGI [56] was 40.8 µM, the TGI [57] was 33.8 µM and the TGI [58] was over 100 µM.
